# Target: Beta-3 Adrenergic Receptor (Homo sapiens (Human), UniProt P13945)
# Test: Homogeneous Time-Resolved Fluorescence (HTRF) cAMP antagonist assay, IC50 determination
# Format: cell-based
# Conditions: CHO-K1 cells stably expressing recombinant receptor, isoproterenol at EC90
# Summary of the method: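 CHO-K1 cells stably expressing receptor, 1500 cells/well, preincubated briefly with 10-point 5-fold compound series (top final typically 10 or 100 μM) in PBS with 1 mM IBMX, then challenged with isoproterenol at EC90 for 1 h at room temperature. cAMP read by HTRF against on-plate standard curve; IC50 from dose-response.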
# Chain of Beta-3 Adrenergic Receptor (P13945 whole entry, species assumed): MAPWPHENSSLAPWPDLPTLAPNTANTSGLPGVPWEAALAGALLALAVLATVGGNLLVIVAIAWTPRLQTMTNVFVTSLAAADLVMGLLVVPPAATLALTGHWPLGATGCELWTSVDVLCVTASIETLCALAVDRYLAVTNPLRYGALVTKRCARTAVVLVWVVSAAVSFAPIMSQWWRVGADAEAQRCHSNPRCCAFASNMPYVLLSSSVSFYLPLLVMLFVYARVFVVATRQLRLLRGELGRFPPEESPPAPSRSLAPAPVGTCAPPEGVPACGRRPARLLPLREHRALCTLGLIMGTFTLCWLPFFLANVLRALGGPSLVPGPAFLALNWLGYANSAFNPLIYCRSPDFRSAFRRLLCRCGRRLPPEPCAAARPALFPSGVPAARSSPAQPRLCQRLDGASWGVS
row,IC50,Structure (SMILES)
1,108 nM,"CCNS(=O)(=O)c1cccc(OC[C@@H](O)CNC2COC3(CCN(S(=O)(=O)c4ccc(Cl)c5nonc45)CC3)C2)c1 (stereo partly drawn) [Compound 235, 3-((2S)-3-(8-(7-chlorobenzo[c][1,2,5]oxadiazol-4-ylsulfonyl)-1-oxa-8-azaspiro[4.5]decan-3-ylamino)-2-hydroxypropoxy)-N-ethylbenzenesulfonamide]"
2,54.9 nM,"CNS(=O)(=O)c1cccc(OC[C@@H](O)CNC2COC3(CCN(S(=O)(=O)c4ccc(OC)cc4C)CC3)C2)c1 (stereo partly drawn) [Compound 236, 3-((2S)-2-hydroxy-3-(8-(4-methoxy-2-methylphenylsulfonyl)-1-oxa-8-azaspiro[4.5]decan-3-ylamino)propoxy)-N-methylbenzenesulfonamide]"
3,42.8 nM,"CNS(=O)(=O)c1cccc(OC[C@@H](O)CNC2COC3(CCN(S(=O)(=O)c4cc(Br)ccc4C)CC3)C2)c1 (stereo partly drawn) [Compound 237, 3-((2S)-3-(8-(5-bromo-2-methylphenylsulfonyl)-1-oxa-8-azaspiro[4.5]decan-3-ylamino)-2-hydroxypropoxy)-N-methylbenzenesulfonamide]"
4,38.4 nM,"CNS(=O)(=O)c1cccc(OC[C@@H](O)CNC2COC3(CCN(S(=O)(=O)c4cc(F)ccc4OC)CC3)C2)c1 (stereo partly drawn) [Compound 238, 3-((2S)-3-(8-(5-fluoro-2-methoxyphenylsulfonyl)-1-oxa-8-azaspiro[4.5]decan-3-ylamino)-2-hydroxypropoxy)-N-methylbenzenesulfonamide]"
5,22.3 nM,"CNS(=O)(=O)c1cccc(OC[C@@H](O)CNC2COC3(CCN(S(=O)(=O)c4ccc(C#N)c(Cl)c4)CC3)C2)c1 (stereo partly drawn) [Compound 239, 3-((2S)-3-(8-(3-chloro-4-cyanophenylsulfonyl)-1-oxa-8-azaspiro[4.5]decan-3-ylamino)-2-hydroxypropoxy)-N-methylbenzenesulfonamide]"
6,28.4 nM,"CNS(=O)(=O)c1cccc(OC[C@@H](O)CNC2COC3(CCN(S(=O)(=O)c4cc(Cl)ccc4C)CC3)C2)c1 (stereo partly drawn) [Compound 240, 3-((2S)-3-(8-(5-chloro-2-methylphenylsulfonyl)-1-oxa-8-azaspiro[4.5]decan-3-ylamino)-2-hydroxypropoxy)-N-methylbenzenesulfonamide]"
7,27.8 nM,"CNS(=O)(=O)c1cccc(OC[C@@H](O)CNC2COC3(CCN(S(=O)(=O)c4cc(OC)ccc4F)CC3)C2)c1 (stereo partly drawn) [Compound 241, 3-((2S)-3-(8-(2-fluoro-5-methoxyphenylsulfonyl)-1-oxa-8-azaspiro[4.5]decan-3-ylamino)-2-hydroxypropoxy)-N-methylbenzenesulfonamide]"
8,420 nM,"CNS(=O)(=O)c1cccc(OC[C@@H](O)CNC2COC3(CCN(S(=O)(=O)c4ccc(OC)c(C)c4C)CC3)C2)c1 (stereo partly drawn) [Compound 242, 3-((2S)-2-hydroxy-3-(8-(4-methoxy-2,3-dimethylphenylsulfonyl)-1-oxa-8-azaspiro[4.5]decan-3-ylamino)propoxy)-N-methylbenzenesulfonamide]"
9,26.2 nM,"CNS(=O)(=O)c1cccc(OC[C@@H](O)CNC2COC3(CCN(S(=O)(=O)c4cnn(-c5ccccc5)c4)CC3)C2)c1 (stereo partly drawn) [Compound 243, 3-((2S)-2-hydroxy-3-(8-(1-phenyl-1H-pyrazol-4-ylsulfonyl)-1-oxa-8-azaspiro[4.5]decan-3-ylamino)propoxy)-N-methylbenzenesulfonamide]"
10,76.1 nM,"CNS(=O)(=O)c1cccc(OC[C@@H](O)CN[C@@H]2COC3(CCN(S(=O)(=O)c4cccc5nsnc45)CC3)C2)c1 [Compound 244, 3-((S)-3-((S)-8-(benzo[c][1,2,5]thiadiazol-4-ylsulfonyl)-1-oxa-8-azaspiro[4.5]decan-3-ylamino)-2-hydroxypropoxy)-N-methylbenzenesulfonamide]"
11,15.5 nM,"CNS(=O)(=O)c1cccc(OC[C@@H](O)CN[C@H]2COC3(CCN(S(=O)(=O)c4cccc5nsnc45)CC3)C2)c1 [Compound 245, 3-((S)-3-((R)-8-(benzo[c][1,2,5]thiadiazol-4-ylsulfonyl)-1-oxa-8-azaspiro[4.5]decan-3-ylamino)-2-hydroxypropoxy)-N-methylbenzenesulfonamide]"
12,38.6 nM,"CN(C)S(=O)(=O)c1cccc(OC[C@@H](O)CNC2COC3(CCN(S(=O)(=O)c4cccc(Cl)c4)CC3)C2)c1 (stereo partly drawn) [Compound 246, 3-((2S)-3-(8-(3-chlorophenylsulfonyl)-1-oxa-8-azaspiro[4.5]decan-3-ylamino)-2-hydroxypropoxy)-N,N-dimethylbenzenesulfonamide]"
13,27.2 nM,"COc1ccc(S(=O)(=O)N2CCC3(CC2)CC(NC[C@H](O)COc2cccc(S(=O)(=O)N(C)C)c2)CO3)cc1C (stereo partly drawn) [Compound 247, 3-((2S)-2-hydroxy-3-(8-(4-methoxy-3-methylphenylsulfonyl)-1-oxa-8-azaspiro[4.5]decan-3-ylamino)propoxy)-N,N-dimethylbenzenesulfonamide]"
14,40.5 nM,"Cc1ccc(F)c(S(=O)(=O)N2CCC3(CC2)CC(NC[C@H](O)COc2cccc(S(=O)(=O)N(C)C)c2)CO3)c1 (stereo partly drawn) [Compound 248, 3-((2S)-3-(8-(2-fluoro-5-methylphenylsulfonyl)-1-oxa-8-azaspiro[4.5]decan-3-ylamino)-2-hydroxypropoxy)-N,N-dimethylbenzenesulfonamide]"
15,29.5 nM,"Cc1cc(S(=O)(=O)N2CCC3(CC2)CC(NC[C@H](O)COc2cccc(S(=O)(=O)N(C)C)c2)CO3)ccc1Br (stereo partly drawn) [Compound 249, 3-((2S)-3-(8-(4-bromo-3-methylphenylsulfonyl)-1-oxa-8-azaspiro[4.5]decan-3-ylamino)-2-hydroxypropoxy)-N,N-dimethylbenzenesulfonamide]"
16,24.2 nM,"CN(C)S(=O)(=O)c1cccc(OC[C@@H](O)CNC2COC3(CCN(S(=O)(=O)c4ccc5c(c4)NC(=O)CO5)CC3)C2)c1 (stereo partly drawn) [Compound 250, 3-((2S)-2-hydroxy-3-(8-(3-oxo-3,4-dihydro-2H-benzo[b][1,4]oxazin-6-ylsulfonyl)-1-oxa-8-azaspiro[4.5]decan-3-ylamino)propoxy)-N,N-dimethylbenzenesulfonamide]"
17,32.9 nM,"CN(C)S(=O)(=O)c1cccc(OC[C@@H](O)CNC2COC3(CCN(S(=O)(=O)c4ccc5nsnc5c4)CC3)C2)c1 (stereo partly drawn) [Compound 251, 3-((2S)-3-(8-(benzo[c][1,2,5]thiadiazol-5-ylsulfonyl)-1-oxa-8-azaspiro[4.5]decan-3-ylamino)-2-hydroxypropoxy)-N,N-dimethylbenzenesulfonamide]"
18,29.3 nM,"Cc1c(S(=O)(=O)N2CCC3(CC2)CC(NC[C@H](O)COc2cccc(S(=O)(=O)N(C)C)c2)CO3)cnn1-c1ccccc1 (stereo partly drawn) [Compound 252, 3-((2S)-2-hydroxy-3-(8-(5-methyl-1-phenyl-1H-pyrazol-4-ylsulfonyl)-1-oxa-8-azaspiro[4.5]decan-3-ylamino)propoxy)-N,N-dimethylbenzenesulfonamide]"
19,22.6 nM,"CN(C)S(=O)(=O)c1cccc(OC[C@@H](O)CNC2COC3(CCN(S(=O)(=O)c4ccc5c(c4)CCCC5)CC3)C2)c1 (stereo partly drawn) [Compound 253, 3-((2S)-2-hydroxy-3-(8-(5,6,7,8-tetrahydronaphthalen-2-ylsulfonyl)-1-oxa-8-azaspiro[4.5]decan-3-ylamino)propoxy)-N,N-dimethylbenzenesulfonamide]"
20,97.3 nM,"Cc1noc(C)c1S(=O)(=O)N1CCC2(CC1)CC(NC[C@H](O)COc1cccc(S(=O)(=O)N(C)C)c1)CO2 (stereo partly drawn) [Compound 254, 3-((2S)-3-(8-(3,5-dimethylisoxazol-4-ylsulfonyl)-1-oxa-8-azaspiro[4.5]decan-3-ylamino)-2-hydroxypropoxy)-N,N-dimethylbenzenesulfonamide]"
21,55.1 nM,"CN(C)S(=O)(=O)c1cccc(OC[C@@H](O)CNC2COC3(CCN(S(=O)(=O)c4ccc(-c5ccccc5)s4)CC3)C2)c1 (stereo partly drawn) [Compound 255, 3-((2S)-2-hydroxy-3-(8-(5-phenylthiophen-2-ylsulfonyl)-1-oxa-8-azaspiro[4.5]decan-3-ylamino)propoxy)-N,N-dimethylbenzenesulfonamide]"
22,21.1 nM,"CN1CCOc2ccc(S(=O)(=O)N3CCC4(CC3)CC(NC[C@H](O)COc3cccc(S(=O)(=O)N(C)C)c3)CO4)cc21 (stereo partly drawn) [Compound 256, 3-((2S)-2-hydroxy-3-(8-(4-methyl-3,4-dihydro-2H-benzo[b][1,4]oxazin-6-ylsulfonyl)-1-oxa-8-azaspiro[4.5]decan-3-ylamino)propoxy)-N,N-dimethylbenzenesulfonamide]"
23,37 nM,"CN(C)S(=O)(=O)c1cccc(OC[C@@H](O)CNC2COC3(CCN(S(=O)(=O)c4ccc(Cl)c5nonc45)CC3)C2)c1 (stereo partly drawn) [Compound 257, 3-((2S)-3-(8-(7-chlorobenzo[c][1,2,5]oxadiazol-4-ylsulfonyl)-1-oxa-8-azaspiro[4.5]decan-3-ylamino)-2-hydroxypropoxy)-N,N-dimethylbenzenesulfonamide]"
24,67.9 nM,"CNS(=O)(=O)c1cccc(OC[C@@H](O)CNC2COC3(CCN(S(=O)(=O)c4ccc(OC)c5ccccc45)CC3)C2)c1 (stereo partly drawn) [Compound 258, 3-((2S)-2-hydroxy-3-(8-(4-methoxynaphthalen-1-ylsulfonyl)-1-oxa-8-azaspiro[4.5]decan-3-ylamino)propoxy)-N-methylbenzenesulfonamide]"
25,23.1 nM,"CNS(=O)(=O)c1cccc(OC[C@@H](O)CNC2COC3(CCN(S(=O)(=O)c4cc(Br)ccc4Cl)CC3)C2)c1 (stereo partly drawn) [Compound 259, 3-((2S)-3-(8-(5-bromo-2-chlorophenylsulfonyl)-1-oxa-8-azaspiro[4.5]decan-3-ylamino)-2-hydroxypropoxy)-N-methylbenzenesulfonamide]"
26,20.3 nM,"CNS(=O)(=O)c1cccc(OC[C@@H](O)CNC2COC3(CCN(S(=O)(=O)c4cc(Br)cc5c4OCC5)CC3)C2)c1 (stereo partly drawn) [Compound 260, 3-((2S)-3-(8-(5-bromo-2,3-dihydrobenzofuran-7-ylsulfonyl)-1-oxa-8-azaspiro[4.5]decan-3-ylamino)-2-hydroxypropoxy)-N-methylbenzenesulfonamide]"
27,47.5 nM,"CNS(=O)(=O)c1cccc(OC[C@@H](O)CNC2COC3(CCN(S(=O)(=O)c4c(C)nn(-c5ccccc5)c4C)CC3)C2)c1 (stereo partly drawn) [Compound 261, 3-((2S)-3-(8-(3,5-dimethyl-1-phenyl-1H-pyrazol-4-ylsulfonyl)-1-oxa-8-azaspiro[4.5]decan-3-ylamino)-2-hydroxypropoxy)-N-methylbenzenesulfonamide]"

# — patent US11987588B2, “Modulators of the beta-3 adrenergic receptor useful for the treatment or prevention of heart failure and disorders related thereto” (Arena Pharmaceuticals, Inc., priority 2017, dated 2024)
